Assay results published in patent US20220211735A1, “MEDICAMENT AND COMBINATION PRODUCT USED FOR PREVENTING, ALLEVIATING AND/OR TREATING FIBROSIS, AND USE THEREOF” (priority 2019, published 2022).

Key:
[1] = in vivo; cited from earlier work
[2] = system: COL1A1, TGFB1, ACTA2 mRNA in LX-2 cells; assay: Real-time PCR of main fibrosis markers in LX-2 cells induced by TGFβ1; assay type: cell-based, human; details: TGF-β1 2 ng/ml, 24 hours
Description: (§1) TGFβ1 induced LX-2 cells and medicament C (using Climycin (HB) or Isovalerylspiramycin I (HY)) administration treatment: LX-2 cells were cultured in DMEM, High Glucose, GlutaMAX™ (Gibco10566016) medium containing 10% fetal bovine serum and mixture of 1% […] and 1% penicillin at 37 DEG C and 5% CO2. 1×10^5 cells per well were plated on a 6-well plate. After 24 hours of culture, the original medium in the 6-well plate was removed by a vacuum pump and added with DMEM medium without 10% fetal bovine serum. After starvation for 24 hours, TGF-β1 (2 ng/ml) was added to induce cell, and different concentration gradients of Carrimycin or Isovalerylspiramycin I were added at the same time, the concentrations were 10 μmol/L and 20 μmol/L respectively. A control group (without adding TGF-β1 induction), TGF-β1 induction group (only TGF-β1 induction) and TGF-β1 induction administration group (both TGF-β1 induction and medicament C treatment) were set.
After culturing for 24 hours, the medium was discarded, and the total RNA of LX-2 cells were extracted according to the TRIzol instructions. Following the instructions of Roche Transcriptor First Strand cDNA Synthesis Kit, the LX-2 total RNA were to reverse transcribed into cDNA. […]

[3] = system: type I collagen α1 promoter COL1A1P; assay: COL1A1 promoter-luciferase reporter gene activity in LX2-COL cells; assay type: cell-based, human; details: 24 hours
Description: The constructed monoclonal cells LX2-COL stably expressing the type I collagen al promoter COL1A1P were spread on a 96-well plate with 2×10^4 cells per well. After the cell confluence is about 90%, different concentrations of medicament C (using Carrimycin or Isovalerylspiramycin I) were added, and each group of experiments has 4 replicate holes. Follow the instructions of Bright-Glo™ Luciferase Assay System, the medium in wells were removed after 24 hours, and 50 μl/well of any medium was added to each well. 50 μl of luciferase substrate was added to each well, and detection was performed after 2 min.

[4] = system: COL1A1, TGFB1, ACTA2, MMP2 mRNA in lung fibroblasts MRC-5; assay: Real-time PCR of main fibrosis markers in lung fibroblasts MRC-5 induced by TGFβ1; assay type: cell-based; details: TGF-β1 3 ng/ml, 24 hours
Description: Method for TGFβ1 inducing lung fibroblasts MRC-5 and administrating Carrimycin or Isovalerylspiramycin I comprises: MRC-5 was cultured in a MEM (Gibco 11095-080) culture medium containing 10% fetal bovine serum, a mixture of 1% penicillin and 1% streptomycin and 1% non-essential amino acids at 37 DEG C and 5% CO2, and was plated in a 6-well according to 3×10^5 cells per well. After culturing for 24 hours, the original culture medium in the 6-well plate was removed by a vacuum pump, and MEM culture medium without 10% fetal bovine serum was added to be starvation culture for 24 hours. And then TGF-β1 (3 ng/ml) induction was added, and at the same time different concentration gradients of Carrimycin and Isovalerylspiramycin I were added. The concentrations were 10 μmol/L, 20 μmol/L, 40 μmol/L. The following groups were set, control group (without adding TGF-β1 induction), TGF-β1 induction group (only TGF-β1 induction is added) and TGF-β1 induction administration group (both adding TGF-β1 induction and treating with Carrimycin or Isovalerylspiramycin I).
After culturing for 24 hours, the culture medium was discarded, and the Total RNA of MRC-5 cells were extracted according to the operation steps of the TRIzol instructions. According to the operation steps of the instructions of Roche Transcriptor First Strand cDNA Synthesis Kit, Total RNA of […] was reversely transcribed into cDNA. The cDNA, sterile water, Roche FastStart Universal Probe Master (Rox) and ABI TaqMan probes (GAPDH, COL1A1, TGFB1, ACTA2, MMP2) were prepared into a 20 μl reaction system, and the ABI 7500 Fast Real-time PCR System was used for detection. GAPDH was used as an internal control to analyze the results.

[5] = system: COL1A1, TGFB1, ACTA2, MMP2 mRNA in skin fibroblasts CCC-ESF-1; assay type: cell-based; details: CCC-ESF-1, 20 and 40 μmol/L, TGF-β1 5 ng/ml, 24 hours
Description: Method for TGFβ1 inducing skin fibroblasts CCC-ESF-1 and administrating Carrimycin and Isovalerylspiramycin I comprises: CCC-ESF-1 was cultured in DMEM, High Glucose, GlutaMAX™ (Gibco 10566016) culture medium containing 10% fetal bovine serum, mixture of 1% penicillin and 1% streptomycin at 37 DEG C and 5% CO2, and was plated in a 6-well according to 3×10^5 cells per well. After culturing for 24 hours, the original culture medium in the 6-well plate was removed by a vacuum pump, and DMEM culture medium without 10% fetal bovine serum was added to be starvation culture for 24 hours. And then TGF-β1 (5 ng/ml) induction was added, and at the same time different concentration gradients of Carrimycin and Isovalerylspiramycin I were added. The concentrations were 20 μmol/L and 40 μmol/L. The following groups were set, control group (without adding TGF-β1 induction), TGF-β1 induction group (only TGF-β1 induction is added) and TGF-β1 induction administration group (both adding TGF-β1 induction and treating with Carrimycin or Isovalerylspiramycin I).
After culturing for 24 hours, the culture medium was discarded, and the Total RNA of […] were extracted according to the operation steps of the TRIzol instructions. According to the operation steps of the instructions of Roche Transcriptor First Strand cDNA Synthesis Kit, Total RNA of LX-2 was reversely transcribed into cDNA. […]

[6] = system: COL1A1, TGFβ1, α-smooth muscle actin protein in LX-2 cells; assay: Western Blot of main fibrosis markers in LX-2 cells induced by TGFβ1; assay type: cell-based, human; details: 20 μmol/L, TGF-β1 2 ng/ml, 24 hours
Description: as §1
After the cells were induced by TGFβ1 and continued to be cultured for 24 hours, 1 ml of Ripa lysis solution (containing 1% PMSF) was added to each well of the 6-well plate to extract the protein. And the protein concentration was determined by the BCA method. The sample was loaded at 25 μg/20 μl per well. […]

Compound	T1/2β [1] [h]	inhibitory effect on COL1A1, TGFB1, and ACTA2 at the mRNA level ([2]; 20 μmol/L)	expression of COL1A1, TGFB1, and ACTA2 (mRNA) ([2]; with the increase of the doses (10 and 20 μmol/L))	luciferase luminescence (COL1A1 promoter activity) ([3]; 40 μM)	inhibitory effect on the activity of the COL1A1 promoter ([3]; LX2-COL cells, luciferase)	effect of inhibiting COL1A1, TGFB1, and ACTA2 at the mRNA level ([4]; MRC-5, 40 μmol/L)	effect of inhibiting COL1A1 at the mRNA level ([4]; MRC-5, 40 μmol/L)	expression of COL1A1 (mRNA) ([4]; MRC-5, with the increase of the dose (10, 20, 40 μmol/L))	inhibition of COL1A1, TGFB1, ACTA2, and MMP2 (mRNA) [5]	expression of marker proteins COL1A1, TGFβ1, α-smooth muscle actin [6]
Carrimycin	23 to 27	–	–	–	–	–	–	–	–	–
CO[C@@H]1[C@@H](O[C@@H]2O[C@H](C)[C@@H](O[C@H]3C[C@@](C)(O)[C@@H](OC(=O)CC(C)C)[C@H](C)O3)[C@H](N(C)C)[C@H]2O)[C@@H](CC=O)C[C@@H](C)[C@@H](O[C@H]2CC[C@H](N(C)C)[C@@H](C)O2)/C=C/C=C/C[C@@H](C)OC(=O)C[C@H]1O [Isovalerylspiramycin I]	–	best inhibitory effect	decreased	decreased most significantly	significant inhibitory effect	the best	the best	decreases	significantly inhibit	significantly inhibited
